Assay results published in EP4792818A1, “COMPOUND SUITABLE FOR EXTERNAL USE, AND PHARMACEUTICAL COMPOSITION” (EnKang Pharmaceuticals (Guangzhou), Ltd., priority 2023, dated 2025).
Where two headings read alike, the source gives them in different places.

Columns and labels:
COLO-16 cells [1] = conditions: COLO-16 tumor-bearing nude mice, 21 days
Experimental: (§1) Quarantine-qualified male BALB/c-nu nude mice weighing 13.7-21.1 g were each inoculated with 0.2 mL of COLO-16 cells in logarithmic growth phase at 6.7 x 10^6 cells/mL in the right axilla. […] The drug was kept in contact with the skin for 4 hrs per administration, and the treatment was given to each group for three consecutive weeks. During the treatment period, the long diameter (a) and short diameter (b) of the tumors were measured using a vernier caliper every 3 days. Then, the tumor volume (TV), relative tumor volume (RTV), and relative tumor proliferation rate (T/C, %) were calculated. After the final administration, the tumor tissues were dissected out and weighed to calculate the tumor growth inhibition rates.

[2] = tested on: human liver cancer HepG2 cells; conditions: documented in CN 104736157 A; cited from earlier work
[3] = topical gel; for plasma drug concentrations above the LLOQ: 0.008-0.06 mg/cm^2, LLOQ 0.02 ng/mL
SCL-1 cells [4] = conditions: SCL-1 tumor-bearing nude mice, 21 days
Experimental: as §1, with “13.4-20.5” for “13.7-21.1”, “SCL-1” for “COLO-16”, “3” for “6.7”, “cells/mL (with Matrigel and cell suspension mixed in a ratio of 1:2)” for “cells/mL”

[5] = for Labeled amount (%) / Related substances (%) Impurity A / Related substances (%) Impurity B / Related substances (%) Impurity C / Related substances (%) Impurity D / Related substances (%) Impurity E / Related substances (%) Impurity F / Related substances (%) RRT0.73 / Related substances (%) RRT1.10 / Related substances (%) RRT2.18 / Related substances (%) Total impurities: mixed with CMC-Na 1:5
[6] = 20 °C
[7] = tested on: TE.354.T cells (human cutaneous basal cell carcinoma)
Experimental: The experimental procedures were as follows: The cells were subcultured in a complete medium containing 10% FBS in an incubator at 37 °C with 5% CO2 and saturated humidity. The cell density was adjusted to (3-5) × 10^4 cells/mL using a complete medium containing 10% FBS. The cell suspension was added to the wells of a 96-well culture plate at 100 µL/well, and the plate was incubated in an incubator at 37 °C with 5% CO2 and saturated humidity overnight (for about 16-24 hrs). Various dose groups of the test substance and a solvent control group were set. On the next day, the original culture medium was discarded. Subsequently, 20% FBS-containing complete medium was added at 100 µL/well, and the test substance or solvent in FBS-free medium was then added at 100 µL/well, resulting in a final FBS concentration of 10%. Meanwhile, a negative control group was set: each well received 100 µL of 20% FBS-containing complete medium + 100 µL of incomplete medium containing cells, resulting in a final FBS concentration of 10%. A zero adjustment group (background) was also set: 200 µL of the culture medium alone (100 µL of 20% FBS-containing complete medium + 100 µL of incomplete medium), without drugs and cells. For each concentration group, four replicate wells were set. […]

A431 cells = tested on: A431 cells
Experimental: (§2) The experimental procedures were as follows: The cells were subcultured in a complete medium containing 10% FBS in an incubator at 37 °C with 5% CO2 and saturated humidity. The cell density was adjusted to (3-5) × 10^4 cells/mL using a complete medium containing 10% FBS. The cell suspension was added to the wells of a 96-well culture plate at 100 µL/well, and the plate was incubated in an incubator at 37 °C with 5% CO2 and saturated humidity overnight (for about 16-24 hrs). Various dose groups of the test substance and a solvent control group were set. On the next day, the original culture medium was discarded. Subsequently, 20% FBS-containing complete medium was added at 100 µL/well, and the test substance or solvent in FBS-free medium was then added at 100 µL/well, resulting in a final FBS concentration of 10%. Meanwhile, a negative control group was set: each well received 100 µL of 20% FBS-containing complete medium + 100 µL of incomplete medium containing cells, resulting in a final FBS concentration of 10%. A zero adjustment group (background) was also set: 200 µL of the culture medium alone (100 µL of 20% FBS-containing complete medium + 100 µL of incomplete medium), without drugs and cells. For each concentration group, four replicate wells were set.
(§3) After incubation for 48 hrs under the experimental conditions, the supernatant was discarded, and 110 µL of CCK-8 working solution (100 µL of 10% FBS-containing complete medium and 10 µL of CCK-8 solution) were added to each well. The cells were further incubated for 4 hrs, and the optical density value at a wavelength of 450 nm (A450) was then measured for each well using a microplate reader. The average value for the wells of each treatment group (T) was compared with the average value for the negative control wells (C). The percent inhibition rate of each concentration group was calculated using the following formula: [Inhibition rate = (1 - T/C) × 100%], and the half-maximal inhibitory concentration (IC50) was calculated.

SCL-1 cells [8] = tested on: SCL-1 cells
Experimental: as §2, §3

COLO-16 cells [9] = tested on: COLO-16 cells
Experimental: as §2, §3

[10] = High humidity for 10 days (RH 90%±5%)
[11] = High temperature for 10 days (60 °C±2 °C)

Structure (SMILES): CO[C@H]1[C@H](O)[C@H](O[C@H]2CC[C@@]3(C)[C@H](CC[C@@H]4[C@@H]3CC[C@]3(C)[C@@H](C5=CC(=O)OC5)CC[C@]43O)C2)O[C@@H](C)[C@@H]1O [17β-neriifolin]
- anti-tumor effect compared with Imiquimod cream (50 mg/g) (COLO-16 cells [1]): significantly superior to that of Imiquimod cream
- cell cycle arrest and apoptosis [2]: induce cell cycle arrest and apoptosis
- plasma drug concentrations above the LLOQ ([3]; four Australian subjects): 0.021 to 0.101 ng/mL
- plasma drug concentrations above the LLOQ ([3]; seven Chinese subjects): 0.022 to 0.106 ng/mL
- dose dependence of systemic exposure ([3]; 0.008-0.06 mg/cm^2 dose range): No dose-dependent increase
- anti-tumor effect compared with Imiquimod cream (50 mg/g) (SCL-1 cells [4]): significantly superior to that of Imiquimod cream
- impact of high temperature, high humidity, and illumination on the related substances and drug content ([5]; combined with sodium carboxymethyl cellulose 1:5, 10 days): no impact
- stability of the combination with sodium carboxymethyl cellulose compared with the combination with Carbomer ([5]; mass ratio 1:5, 10 days, high temperature, high humidity, illumination): significantly superior
- Labeled amount (%) ([5]; 0 days): 99.56%
- Related substances (%) Impurity A ([5]; 0 days): 0.17%
- Related substances (%) Impurity B ([5]; 0 days): 0.36%
- Related substances (%) Impurity C ([5]; 0 days): 0.25%
- Related substances (%) Impurity D ([5]; 0 days): 0.13%
- Related substances (%) Impurity E ([5]; 0 days): 0.15%
- Related substances (%) Impurity F ([5]; 0 days): 0.14%
- Related substances (%) RRT0.73 ([5]; 0 days): 0.05%
- Related substances (%) RRT1.10 ([5]; 0 days): 0.04%
- Related substances (%) RRT2.18 ([5]; 0 days): 0.03%
- Related substances (%) Total impurities ([5]; 0 days): 1.32%
- Labeled amount (%) [5, 10]: 99.42%
- Related substances (%) Impurity A [5, 10]: 0.17%
- Related substances (%) Impurity B [5, 10]: 0.36%
- Related substances (%) Impurity C [5, 10]: 0.25%
- Related substances (%) Impurity D [5, 10]: 0.13%
- Related substances (%) Impurity E [5, 10]: 0.15%
- Related substances (%) Impurity F [5, 10]: 0.14%
- Related substances (%) RRT0.73 [5, 10]: 0.05%
- Related substances (%) RRT1.10 [5, 10]: 0.04%
- Related substances (%) RRT2.18 [5, 10]: 0.03%
- Related substances (%) Total impurities [5, 10]: 1.32%
- Labeled amount (%) [5, 11]: 100.95%
- Related substances (%) Impurity A [5, 11]: 0.17%
- Related substances (%) Impurity B [5, 11]: 0.36%
- Related substances (%) Impurity C [5, 11]: 0.25%
- Related substances (%) Impurity D [5, 11]: 0.13%
- Related substances (%) Impurity E [5, 11]: 0.15%
- Related substances (%) Impurity F [5, 11]: 0.14%
- Related substances (%) RRT0.73 [5, 11]: 0.05%
- Related substances (%) RRT1.10 [5, 11]: 0.04%
- Related substances (%) RRT2.18 [5, 11]: 0.03%
- Related substances (%) Total impurities [5, 11]: 1.32%
- Labeled amount (%) ([5]; Strong light for 10 days): 99.96%
- Related substances (%) Impurity A ([5]; Strong light for 10 days): 0.17%
- Related substances (%) Impurity B ([5]; Strong light for 10 days): 0.36%
- Related substances (%) Impurity C ([5]; Strong light for 10 days): 0.25%
- Related substances (%) Impurity D ([5]; Strong light for 10 days): 0.13%
- Related substances (%) Impurity E ([5]; Strong light for 10 days): 0.15%
- Related substances (%) Impurity F ([5]; Strong light for 10 days): 0.14%
- Related substances (%) RRT0.73 ([5]; Strong light for 10 days): 0.05%
- Related substances (%) RRT1.10 ([5]; Strong light for 10 days): 0.04%
- Related substances (%) RRT2.18 ([5]; Strong light for 10 days): 0.03%
- Related substances (%) Total impurities ([5]; Strong light for 10 days): 1.32%
- Dissolution behavior ([6]; Ethanol concentration 20 %, sample concentration 8 mg/g): dissolved
- Dissolution behavior ([6]; Ethanol concentration 20 %, sample concentration 8 mg/g, listed as 17β-Neriifolin): Dissolved
- Dissolution behavior ([6]; Ethanol concentration 45 %, sample concentration 20 mg/g): dissolved
- Dissolution behavior ([6]; Ethanol concentration 45 %, sample concentration 20 mg/g, listed as 17β-Neriifolin): Dissolved
- Dissolution behavior ([6]; Ethanol concentration 50 %, sample concentration 24 mg/g): Dissolved
- Dissolution behavior ([6]; Ethanol concentration 66 %, sample concentration 32 mg/g): Dissolved
- Dissolution behavior ([6]; Ethanol concentration 75 %, sample concentration 40 mg/g): Dissolved
- Dissolution behavior ([6]; Ethanol concentration 100 %, sample concentration 50 mg/g): Dissolved
- growth inhibitory effects [7]: strong growth inhibitory effects
- growth inhibitory effects (A431 cells): strong growth inhibitory effects
- growth inhibitory effects (SCL-1 cells [8]): strong growth inhibitory effects
- growth inhibitory effects (COLO-16 cells [9]): strong growth inhibitory effects
